From patent publication US20230293630A1, “Coronavirus T Cell Epitopes and Uses Thereof” (priority 2020, published 2023)
Like-named read-outs stand apart in the source and are kept apart here.

Tested on: SARS-CoV-2-specific CD4+ T cells (OX40+CD137+) in PBMC
Format: cell-based, human
[1] = CD4+ T cell epitopes identified by AIM assay, share of donors responding
[2] = CD4+ T cell epitopes identified by AIM assay, sum of response per responding donor
[3] = CD4+ T cell epitopes identified by AIM assay, total response
[4] = CD4+ T cell epitopes identified by AIM assay, percent of tested donors responding
[5] = CD4+ T cell epitopes identified by AIM assay, total response summed over donors

Sequence | Frequency of response (%) [1] [%] | Magnitude by # of responding donors [2] | Sum of response [3] | Frequency of response (%) [4] [%] | Sum of response [5] | Frequency of response (%) | Magnitude by # of responding donors | Sum of response
EKSNIIRGWIFGTTL | 9 | 299 | 299 | – | – | – | – | –
ARKSAPLIELCVDEA | 18 | 329 | 658 | – | – | – | – | –
SVLYNSASFSTFKCY | 8 | 892 | 892 | – | – | – | – | –
IGINITRFQTLLALH | – | 177 | – | 9 | 177 | – | – | –
VVIKVCEFQFCNDPF | 9 | 2088 | 2088 | – | – | – | – | –
VRIIMRLWLCWKCRS | 14 | 131 | 261 | – | – | – | – | –
TNILLNVPLHGTILT | 25 | 543 | 1628 | – | – | – | – | –
IVRFPNITNLCPFGE | – | 107 | – | 9 | 107 | – | – | –
CEFQFCNDPFLGVYY | – | 359 | – | 27 | 1077 | – | – | –
NLVRDLPQGFSALEP | 27 | 607 | 1822 | – | – | – | – | –
FSNSGSDVLYQPPQT | 8 | 149 | 149 | – | – | – | – | –
EELKKLLEQWNLVIG | 13 | 223 | 446 | – | – | – | – | –
QELGKYEQYIKWPWY | 8 | 768 | 768 | – | – | – | – | –
TVTLLPAADLDDFSK | 7 | 648 | 648 | – | – | – | – | –
NRNRFLYIIKLIFLW | 13 | 210 | 420 | – | – | – | – | –
PLIELCVDEAGSKSP | 18 | 171 | 341 | – | – | – | – | –
GVPINTNSSPDDQIG | 8 | 108 | 108 | – | – | – | – | –
QFAPSASAFFGMSRI | 17 | 191 | 381 | – | – | – | – | –
NKDGIIWVATEGALN | 29 | 437 | 1747 | – | – | – | – | –
LVYFLQSINFVRIIM [SEQ ID NO 251] | – | 218 | – | 7 | 218 | – | – | –
QSINFVRIIMRLWLC [SEQ ID NO 252] | – | 168 | – | 21 | 505 | – | – | –
DAALALLLLDRLNQL [SEQ ID NO 246] | 21 | 488 | 1463 | – | – | – | – | –
NPVLPFNDGVYFAST | 9 | 413 | 413 | – | – | – | – | –
TQHQPYVVDDPCPIH | 36 | 338 | 1352 | – | – | – | – | –
DVFHLYLQYIRKLHD | 7 | 247 | 247 | – | – | – | – | –
VTLADAGFIKQYGDC | 17 | 119 | 237 | – | – | – | – | –

Sequence | Frequency of response (%) [1] [%] | Magnitude by # of responding donors [2] | Sum of response [3] | Frequency of response (%) [4] [%] | Sum of response [5] | Frequency of response (%) | Magnitude by # of responding donors | Sum of response
IKDLPKEITVATSRT | 23 | 258 | 774 | – | – | – | – | –
EFVFKNIDGYFKIYS | 18 | 336 | 672 | – | – | – | – | –
LEAPFLYLYALVYFL | 7 | 272 | 272 | – | – | – | – | –
ADAVIKTLQPVSELL | 8 | 436 | 436 | – | – | – | – | –
ELDKYFKNHTSPDVD | – | 361 | – | 7 | 361 | – | – | –
KEITVATSRTLSYYK | 54 | 516 | 3615 | – | – | – | – | –
FLHFLPRVFSAVGNI | 9 | 491 | 491 | – | – | – | – | –
VNNSYECDIPIGAGI | 11 | 398 | 398 | – | – | – | – | –
FLGIITTVAAFHQEC [SEQ ID NO 254] | – | 185 | – | 9 | 185 | – | – | –
LQPELDSFKEELDKY | 7 | 173 | 173 | – | – | – | – | –
LPPLLTDEMIAQYTS | 9 | 153 | 153 | – | – | – | – | –
IGNYTVSCLPFTINC | 45 | 245 | 1223 | – | – | – | – | –
IQYIDIGNYTVSCLP | 9 | 1805 | 1805 | – | – | – | – | –
CAQKFNGLTVLPPLL | – | 741 | – | 9 | 741 | – | – | –
KNTQEVFAQVKQIYK | 8 | 125 | 125 | – | – | – | – | –
YADSFVIRGDEVRQI | 8 | 160 | 160 | – | – | – | – | –
NVLFSTVFPPTSFGP | 7 | 109 | 109 | – | – | – | – | –
TDYKHWPQIAQFAPS | 8 | 180 | 180 | – | – | – | – | –
YREAACCHLAKALND | 8 | 109 | 109 | – | – | – | – | –
GTILTRPLLESELVI | 17 | 161 | 322 | – | – | – | – | –
GYKKPASRELKVTFF | 15 | 246 | 491 | – | – | – | – | –
LMDLEGKQGNFKNLR | 36 | 347 | 1386 | – | – | – | – | –
TRFQTLLALHRSYLT | – | 2172 | – | 18 | 4343 | – | – | –
KVTFFPDLNGDVVAI [SEQ ID NO 257] | – | 147 | – | 15 | 293 | – | – | –
QKKQQTVTLLPAADL | 7 | 712 | 712 | – | – | – | – | –
MFTPLVPFWITIAYI | 8 | 602 | 602 | – | – | – | – | –

Sequence | Frequency of response (%) [1] [%] | Magnitude by # of responding donors [2] | Sum of response [3] | Frequency of response (%) [4] [%] | Sum of response [5] | Frequency of response (%) | Magnitude by # of responding donors | Sum of response
SSANNCTFEYVSQPF | – | – | – | – | – | 27 | 1426 | 4279
FNCYFPLQSYGFQPT | 8 | 130 | 130 | – | – | – | – | –
ITGGIAIAMACLVGL | 17 | 207 | 414 | – | – | – | – | –
AIAMACLVGLMWLSY | 8 | 151 | 151 | – | – | – | – | –
QDALFAYTKRNVIPT | 6 | 132 | 132 | – | – | – | – | –
SEMVMCGGSLYVKPG | 6 | 217 | 217 | – | – | – | – | –
PRPPLNRNYVFTGYR | 8 | 101 | 101 | – | – | – | – | –
SGHNLAKHCLHVVGP | 8 | 148 | 148 | – | – | – | – | –
SGFAAYSRYRIGNYK | – | – | – | – | – | 31 | 185 | 739
GSLVVRCSFYEDFLE | 27 | 231 | 694 | – | – | – | – | –
NHTKKWKYPQVNGLT | 9 | 123 | 123 | – | – | – | – | –
TPSFKKGAKLLHKPI | 8 | 103 | 103 | – | – | – | – | –
GAVILRGHLRIAGHH | 8 | 512 | 512 | – | – | – | – | –
VFAQVKQIYKTPPIK | – | 268 | – | 8 | 268 | – | – | –
STECSNLLLQYGSFC | 8 | 314 | 314 | – | – | – | – | –
RLWLCWKCRSKNPLL | 7 | 290 | 290 | – | – | – | – | –
SIAIPTNFTISVTTE | 8 | 274 | 274 | – | – | – | – | –
CVDEAGSKSPIQYID | 9 | 327 | 327 | – | – | – | – | –
IAATRGATVVIGTSK | 6 | 117 | 117 | – | – | – | – | –
AYSNNSIAIPTNFTI | – | 112 | – | 8 | 112 | – | – | –
SLQSCTQHQPYVVDD | 9 | 1222 | 1222 | – | – | – | – | –
FTVEKGIYQTSNFRV | – | 1202 | – | 9 | 1202 | – | – | –
QMAYRFNGIGVTQNV | 7 | 160 | 160 | – | – | – | – | –
CPFGEVFNATRFASV | – | 108 | – | 9 | 108 | – | – | –
